{"source": "patent US8754259B2", "about": "“Synthesis of cyclohexane derivatives useful as sensates in consumer products” (The Proctor & Gamble Company, priority 2008, dated 2014)", "key": {"[1]": {"experiment": "Cooling rating of test dentifrices relative to control dentifrice, panelists n=9", "type": "in vivo, human", "settings": "for Cooling Rating Relative to Control: control = 60 on 1-90 scale; for cooling power compared to l-menthyl lactate: in words, dentifrice panel test, 60 minute period", "method": "The neo-coolants synthesized according to the routes outlined herein were tested to rate their cooling power compared with the corresponding l-isomers (commercially available samples) using the following protocol. Control and test coolants were formulated into a dentifrice at various levels according to the following formula.\nPanelists (n=9) were instructed to brush for 30 seconds with a control dentifrice (containing a mixture of coolants 1500 ppm l-WS-3, 3000 ppm Menthol, 3000 ppm MGA and 1000 ppm WS-23), expectorate, and assign the control dentifrice a cooling rating of 60 on a 1-90 scale. The panelists were then given the test dentifrices in random order and instructed to brush and rate each sample relative to the control over a 60-minute period. Cooling ratings relative to control are summarized below."}, "[2]": {"experiment": "Sensory studies of coolant activity (G-180 and neoisomer vs menthol)", "type": "in vivo, human", "settings": "for burning sensation: sensory evaluations by panelists", "method": "The coolant properties of the materials prepared according to the present methods are evaluated using sensory studies. […] By contrast, both the G-180 and neoisomer materials provided a sensation that lasted longer than about 15 minutes. The cooling potency of the neoisomer is particularly unexpected, since stereochemistry is a major factor influencing coolant activity and potency for menthol and menthol derivatives as reported in previous studies. [See for example, R. Emberger and R. Hopp (1987), Specialty Chemicals, 7(3), 193-201; R. Eccles (1990), Chemical Senses, 2, 275-291; S. Rovner (2007), Chemical & Engineering News, 85(39), 95-98]. […] The effect on activity of these isomers is far more significant than is observed with menthol.\nSensory evaluation studies of coolant activity may be conducted using a methodology patterned after the techniques described in M. C. Meilgaard, et al., Sensory Evaluation Techniques, 4th Ed. (2007). A panel of trained sensory experts evaluates cooling sensation experienced after using a product with coolant, for example by brushing with a dentifrice or rinsing with an aqueous rinse. In one protocol, panelists brush teeth with 1.5 grams of a test dentifrice (containing coolant) or control (no coolant) and then expectorate. After brush expectoration, panelists evaluate cooling intensity, assigning a number between 0 (no cooling) to 60 (intense cooling). In a rinse protocol, panelists rinse mouth with 15 ml. of an aqueous rinse and expectorate. After rinse expectoration, panelists evaluate cooling intensity according to the same 0 to 60 scale. Evaluations are conducted various time points, for example, at 5, 15, 30, 45, 60 minute, etc. At each evaluation, panelists are instructed to breathe in through pursed lips and evaluate overall cooling sensation. In this test, a numerical score of 7.5 indicates meaningful or definite cooling."}, "[3]": {"settings": "concentration where the cooling effect could be clearly recognized; cited from earlier work"}, "[4]": {"settings": "0 min, 1500 ppm coolant in dentifrice"}, "[5]": {"settings": "15 min, 1500 ppm coolant in dentifrice"}, "[6]": {"settings": "30 min, 1500 ppm coolant in dentifrice"}, "[7]": {"settings": "45 min, 1500 ppm coolant in dentifrice"}, "[8]": {"settings": "60 min, 1500 ppm coolant in dentifrice"}, "[9]": {"settings": "0 min, 500 ppm coolant in dentifrice"}, "[10]": {"settings": "15 min, 500 ppm coolant in dentifrice"}, "[11]": {"settings": "30 min, 500 ppm coolant in dentifrice"}, "[12]": {"settings": "45 min, 500 ppm coolant in dentifrice"}, "[13]": {"settings": "60 min, 500 ppm coolant in dentifrice"}}}
{"compound": "CCNC(=O)C1CC(C)CCC1C(C)C", "note": "(stereo not drawn) [l-WS-3, N-ethyl-ρ-menthan-3-carboxamide, reference compound]", "values": [{"measurement": "Cooling Rating Relative to Control", "setting": "[1]; [4]", "result": 53.5}, {"measurement": "Cooling Rating Relative to Control", "setting": "[1]; [5]", "result": 36.5}, {"measurement": "Cooling Rating Relative to Control", "setting": "[1]; [6]", "result": 27.0}, {"measurement": "Cooling Rating Relative to Control", "setting": "[1]; [7]", "result": 20.5}, {"measurement": "Cooling Rating Relative to Control", "setting": "[1]; [8]", "result": 15.5}]}
{"compound": "CC(C)[C@@H]1CC[C@@H](C)C[C@H]1C(=O)Nc1ccc(CC#N)cc1", "note": "[G-180, N-[4-(cyanomethyl)phenyl]-(1R,2S,5R)-2-isopropyl-5-methylcyclohexanecarboxamide, reference compound]", "values": [{"measurement": "burning sensation", "setting": "[2]", "result": "“burning” sensation especially when used at fairly high levels"}]}
{"compound": "CC(C)[C@@H]1CC[C@@H](C)C[C@H]1OC(=O)[C@H](C)O", "note": "[l-Menthyl lactate (2S), reference compound]", "values": [{"measurement": "Cooling Rating Relative to Control", "setting": "[1]; [9]", "result": 50.0}, {"measurement": "Cooling Rating Relative to Control", "setting": "[1]; [10]", "result": 38.0}, {"measurement": "Cooling Rating Relative to Control", "setting": "[1]; [11]", "result": 26.5}, {"measurement": "Cooling Rating Relative to Control", "setting": "[1]; [12]", "result": 18.5}, {"measurement": "Cooling Rating Relative to Control", "setting": "[1]; [13]", "result": 13.5}]}
{"compound": "CCOC(=O)CNC(=O)[C@H]1C[C@H](C)CC[C@H]1C(C)C", "note": "[NeoWS-5]", "values": [{"measurement": "Cooling Rating Relative to Control", "setting": "[1]; [4]", "result": 61.9}, {"measurement": "Cooling Rating Relative to Control", "setting": "[1]; [5]", "result": 39.3}, {"measurement": "Cooling Rating Relative to Control", "setting": "[1]; [6]", "result": 29.3}, {"measurement": "Cooling Rating Relative to Control", "setting": "[1]; [7]", "result": 21.4}, {"measurement": "Cooling Rating Relative to Control", "setting": "[1]; [8]", "result": 15.7}]}
{"compound": "CC(=O)C(=O)OC1CC(C)CCC1C(C)C", "note": "(stereo not shown) [Neo-Menthyl pyruvate]", "values": [{"measurement": "Cooling Rating Relative to Control", "setting": "[1]; 0 min, 1000 ppm coolant in dentifrice", "result": 57.8}, {"measurement": "Cooling Rating Relative to Control", "setting": "[1]; 15 min, 1000 ppm coolant in dentifrice", "result": 45.0}, {"measurement": "Cooling Rating Relative to Control", "setting": "[1]; 30 min, 1000 ppm coolant in dentifrice", "result": 30.6}, {"measurement": "Cooling Rating Relative to Control", "setting": "[1]; 45 min, 1000 ppm coolant in dentifrice", "result": 21.1}, {"measurement": "Cooling Rating Relative to Control", "setting": "[1]; 60 min, 1000 ppm coolant in dentifrice", "result": 16.1}]}
{"compound": "CC(C)[C@@H]1CC[C@@H](C)C[C@H]1O", "note": "[L-menthol, l-menthol, reference compound]", "values": [{"measurement": "cooling threshold", "setting": "[3]", "result": "about 800 ppb"}, {"measurement": "course of cooling sensation after use", "setting": "[2]; sensory studies", "result": "drops sharply within a few minutes after use"}]}
{"compound": "CC(C)[C@@H]1CC[C@@H](C)C[C@@H]1O", "note": "[d-neomenthol]", "values": [{"measurement": "cooling threshold", "setting": "[3]", "result": "about 25,000 ppb"}]}
{"compound": "CCOC(=O)CNC(=O)C1CC(C)CCC1C(C)C", "note": "(stereo not drawn) [l-WS-5, N-ethoxycarbonylmethyl-ρ-menthan-3-carboxamide, reference compound]", "values": [{"measurement": "Cooling Rating Relative to Control", "setting": "[1]; [4]", "result": 53.9}, {"measurement": "Cooling Rating Relative to Control", "setting": "[1]; [5]", "result": 40.0}, {"measurement": "Cooling Rating Relative to Control", "setting": "[1]; [6]", "result": 26.7}, {"measurement": "Cooling Rating Relative to Control", "setting": "[1]; [7]", "result": 17.8}, {"measurement": "Cooling Rating Relative to Control", "setting": "[1]; [8]", "result": 13.3}]}
{"compound": "CC(C)[C@@H]1CC[C@@H](C)C[C@@H]1C(=O)Nc1ccc(CC#N)cc1", "note": "[Neo-G-180, N-[4-(cyanomethyl)phenyl]-(1S,2S,5R)-2-isopropyl-5-methylcyclohexanecarboxamide]", "values": [{"measurement": "cooling properties", "setting": "[2]; in vivo", "result": "excellent cooling properties"}, {"measurement": "burning sensation", "setting": "[2]", "result": "significantly less of the “burning” sensation"}, {"measurement": "melting point", "result": "167 to 169", "unit": "°C"}]}
{"compound": "CC(=O)O[C@@H](C)C(=O)O[C@H]1C[C@H](C)CC[C@H]1C(C)C", "note": "[Neo-Menthyl lactate acetate (2S), (1S,2S,5R)-2-isopropyl-5-methylcyclohexyl-2(S)-acetoxypropanoate]", "values": [{"measurement": "Cooling Rating Relative to Control", "setting": "[1]; 0 min, 335 ppm coolant in dentifrice", "result": 64.4}, {"measurement": "Cooling Rating Relative to Control", "setting": "[1]; 15 min, 335 ppm coolant in dentifrice", "result": 46.3}, {"measurement": "Cooling Rating Relative to Control", "setting": "[1]; 30 min, 335 ppm coolant in dentifrice", "result": 33.1}, {"measurement": "Cooling Rating Relative to Control", "setting": "[1]; 45 min, 335 ppm coolant in dentifrice", "result": 26.3}, {"measurement": "Cooling Rating Relative to Control", "setting": "[1]; 60 min, 335 ppm coolant in dentifrice", "result": 21.3}, {"measurement": "cooling power compared to l-menthyl lactate", "setting": "[1]", "result": "very strong initial cooling as well as over the 60 minute time period"}]}
{"compound": "CCNC(=O)[C@H]1C[C@H](C)CC[C@H]1C(C)C", "note": "[Neo-WS-3]", "values": [{"measurement": "Cooling Rating Relative to Control", "setting": "[1]; [4]", "result": 43.3}, {"measurement": "Cooling Rating Relative to Control", "setting": "[1]; [5]", "result": 33.9}, {"measurement": "Cooling Rating Relative to Control", "setting": "[1]; [6]", "result": 23.3}, {"measurement": "Cooling Rating Relative to Control", "setting": "[1]; [7]", "result": 16.7}, {"measurement": "Cooling Rating Relative to Control", "setting": "[1]; [8]", "result": 13.3}]}
{"compound": "CC(C)[C@H]1CC[C@H](C)C[C@H]1O", "note": "[l-neomenthol]", "values": [{"measurement": "cooling threshold", "setting": "[3]", "result": "about 3,000 ppb"}]}
{"compound": "CC1CCC(C(C)C)C(OC(=O)C(C)O)C1", "note": "[Neo-Menthyl lactate (2S)]", "values": [{"measurement": "Cooling Rating Relative to Control", "setting": "[1]; [9]", "result": 62.2}, {"measurement": "Cooling Rating Relative to Control", "setting": "[1]; [10]", "result": 43.9}, {"measurement": "Cooling Rating Relative to Control", "setting": "[1]; [11]", "result": 33.9}, {"measurement": "Cooling Rating Relative to Control", "setting": "[1]; [12]", "result": 27.5}, {"measurement": "Cooling Rating Relative to Control", "setting": "[1]; [13]", "result": 16.7}, {"measurement": "cooling power compared to l-menthyl lactate", "setting": "[1]", "result": "very strong initial cooling as well as over the 60 minute time period"}]}
{"compound": "Neo-Menthyl lactate [Neo-Menthyl lactate (~2:1 S:R)]", "values": [{"measurement": "Cooling Rating Relative to Control", "setting": "[1]; 0 min, 1950 ppm coolant in dentifrice", "result": 50.6}, {"measurement": "Cooling Rating Relative to Control", "setting": "[1]; 15 min, 1950 ppm coolant in dentifrice", "result": 42.8}, {"measurement": "Cooling Rating Relative to Control", "setting": "[1]; 30 min, 1950 ppm coolant in dentifrice", "result": 30.6}, {"measurement": "Cooling Rating Relative to Control", "setting": "[1]; 45 min, 1950 ppm coolant in dentifrice", "result": 22.2}, {"measurement": "Cooling Rating Relative to Control", "setting": "[1]; 60 min, 1950 ppm coolant in dentifrice", "result": 16.7}]}
